Measured values reported in US4735959A, “Carboxylic acid amides and pharmaceutical compositions containing them” (Dr. Karl Thomae GmbH, priority 1981, dated 1988).
Read-outs that look alike come from different tables or passages of the source.

Test system: blood-sugar
Assay: Blood-sugar lowering activity in starved female rats after oral administration
Assay type: in vivo
Conditions: for change in vivo at 1 mg/kg / change in vivo at 5 mg/kg / change in vivo at 10 mg/kg / change in vivo at 0.6 mg/kg: Rattus norvegicus, po, read-out: Blood-sugar lowering activity, percent as compared with the controls; for change in vivo at 10 mg/kg: 10 mg/kg orally (footnote *); for change in vivo at 0.6 mg/kg: 0.6 mg/kg orally
Description: The blood-sugar lowering activity of the test compounds was determined in home-bred female rats with weights of from 180 to 220 grams. Twenty-four hours before starting the test the animals were starved. Before the test the compounds were suspended in 1.5% methyl cellulose and administered to the animals by means of an esophageal tube.
Blood was taken from the retroorbital plexus vein before administration of the test compounds as well as each of 1, 2, 3, and 4 hours after administration. Fifty microliters of each sample were deproteinized with 0.5 ml of 0.33N perchloric acid and centrifuged. The glucose content was determined in the supernatant according to the Hexokinase method by means of an analysis photometer. The statistical evalulation was performed with the t-test according to Student with p=0.05.

[1] = 1 mg/kg orally, 1 hour, n.s. = not statistically significant
[2] = 1 mg/kg orally, 2 hours, n.s. = not statistically significant
[3] = 1 mg/kg orally, 3 hours, n.s. = not statistically significant
[4] = 1 mg/kg orally, 4 hours, n.s. = not statistically significant
[5] = 5 mg/kg orally, 1 hour, n.s. = not statistically significant
[6] = 5 mg/kg orally, 2 hours, n.s. = not statistically significant
[7] = 5 mg/kg orally, 3 hours, n.s. = not statistically significant
[8] = 5 mg/kg orally, 4 hours, n.s. = not statistically significant
[9] = 3 hours, n.s. = not statistically significant
[10] = 4 hours, n.s. = not statistically significant

## CCCC/C=C(\NC(=O)Cc1ccc(C(=O)OCC)cc1)c1ccccc1N1CCCCC1 [E, (Z)-4-[(1-(2-Piperidino-phenyl)-1-hexen-1-yl)-aminocarbonylmethyl]-benzoic acid ethyl ester]
[1]
  change in vivo at 1 mg/kg: -23%
[2]
  change in vivo at 1 mg/kg: -23%
[3]
  change in vivo at 1 mg/kg: -12%
[4]
  change in vivo at 1 mg/kg: -18%
[5]
  change in vivo at 5 mg/kg: -46%
[6]
  change in vivo at 5 mg/kg: -40%
[7]
  change in vivo at 5 mg/kg: -38%
[8]
  change in vivo at 5 mg/kg: -26%

## O=C(O)C=Cc1ccc(CC(=O)NC(c2ccccc2)c2ccccc2N2CCCCC2)cc1 (stereo not drawn) [AK, 4-[(α-Phenyl-2-piperidino-benzyl)-aminocarbonylmethyl]-cinnamic acid]
[1]
  change in vivo at 1 mg/kg: -32%
[2]
  change in vivo at 1 mg/kg: -19%
[3]
  change in vivo at 1 mg/kg: -10%
[4]
  change in vivo at 1 mg/kg: -17%
1 hour
  change in vivo at 10 mg/kg: -48%
2 hours
  change in vivo at 10 mg/kg: -47%
[9]
  change in vivo at 10 mg/kg: -40%
[10]
  change in vivo at 10 mg/kg: -45%

## N#CC(NC(=O)Cc1ccc(C(=O)O)cc1)c1ccccc1N1CCCCC1 (stereo not drawn) [Q, 4-[(α-Cyano-2-piperidino-benzyl)-aminocarbonylmethyl]-benzoic acid]
[7]
  Blood-sugar lowering activity, percent as compared with the controls: n.s.
[8]
  Blood-sugar lowering activity, percent as compared with the controls: n.s.
[5]
  change in vivo at 5 mg/kg: -28%
[6]
  change in vivo at 5 mg/kg: -13%

## CCCC(NC(=O)Cc1ccc(C(=O)O)cc1)c1ccccc1N1CCCCCC1 (stereo not drawn) [M, 4-[(1-(2-Hexahydroazepino-phenyl)-1-butyl)-aminocarbonylmethyl]-benzoic acid]
[4]
  Blood-sugar lowering activity, percent as compared with the controls: n.s.
[1]
  change in vivo at 1 mg/kg: -33%
[2]
  change in vivo at 1 mg/kg: -30%
[3]
  change in vivo at 1 mg/kg: -21%
[5]
  change in vivo at 5 mg/kg: -46%
[6]
  change in vivo at 5 mg/kg: -43%
[7]
  change in vivo at 5 mg/kg: -40%
[8]
  change in vivo at 5 mg/kg: -36%

## CCCC(NC(=O)Cc1ccc(C(=O)O)cc1)c1ccc(F)cc1N1CCCCC1 (stereo not drawn) [V, 4-[(1-(4-Fluoro-2-piperidino-phenyl)-1-butyl)-aminocarbonylmethyl]-benzoic acid]
[1]
  change in vivo at 1 mg/kg: -37%
[2]
  change in vivo at 1 mg/kg: -23%
[3]
  change in vivo at 1 mg/kg: -30%
[4]
  change in vivo at 1 mg/kg: -18%
[5]
  change in vivo at 5 mg/kg: -45%
[6]
  change in vivo at 5 mg/kg: -41%
[7]
  change in vivo at 5 mg/kg: -46%
[8]
  change in vivo at 5 mg/kg: -40%

## O=C(Cc1ccc(C(=O)O)cc1)NC(c1ccccc1)c1ccccc1N1CCCCC1 (single isomer, unassigned; (-)) [AW, (-)-4-[(2-Piperidino-benzhydryl)-aminocarbonylmethyl]-benzoic acid]
1 hour
  change in vivo at 0.6 mg/kg: -40%
2 hours
  change in vivo at 0.6 mg/kg: -34%
3 hours
  change in vivo at 0.6 mg/kg: -31%
4 hours
  change in vivo at 0.6 mg/kg: -26%

## COCC(NC(=O)Cc1ccc(C(=O)O)cc1)c1ccccc1N1CCCCC1 (stereo not drawn) [Compound P, 4-[(2-Methoxy-1-(2-piperidino-phenyl)-1-ethyl)-aminocarbonylmethyl]-benzoic acid]
[3]
  Blood-sugar lowering activity, percent as compared with the controls: n.s.
[4]
  Blood-sugar lowering activity, percent as compared with the controls: n.s.
[1]
  change in vivo at 1 mg/kg: -37%
[2]
  change in vivo at 1 mg/kg: -19%
[5]
  change in vivo at 5 mg/kg: -49%
[6]
  change in vivo at 5 mg/kg: -43%
[7]
  change in vivo at 5 mg/kg: -34%
[8]
  change in vivo at 5 mg/kg: -22%

## O=C(Cc1ccc(C(=O)O)cc1)NC(c1cccc(Cl)c1)c1ccccc1N1CCCCC1 (stereo not drawn) [AF, 4-[(α-(3-Chloro-phenyl)-2-piperidino-benzyl)-aminocarbonylmethyl]-benzoic acid]
[3]
  Blood-sugar lowering activity, percent as compared with the controls: n.s.
[4]
  Blood-sugar lowering activity, percent as compared with the controls: n.s.
[1]
  change in vivo at 1 mg/kg: -17%
[2]
  change in vivo at 1 mg/kg: -19%
[5]
  change in vivo at 5 mg/kg: -43%
[6]
  change in vivo at 5 mg/kg: -39%
[7]
  change in vivo at 5 mg/kg: -30%
[8]
  change in vivo at 5 mg/kg: -26%

## CCCC(NC(=O)Cc1ccc(CO)cc1)c1ccccc1N1CCCCC1 (stereo not drawn) [R, 4-[(1-(2-Piperidino-phenyl)-1-butyl)-aminocarbonylmethyl]-benzyl alcohol]
[1]
  change in vivo at 1 mg/kg: -39%
[2]
  change in vivo at 1 mg/kg: -34%
[3]
  change in vivo at 1 mg/kg: -29%
[4]
  change in vivo at 1 mg/kg: -24%
[5]
  change in vivo at 5 mg/kg: -38%
[6]
  change in vivo at 5 mg/kg: -40%
[7]
  change in vivo at 5 mg/kg: -35%
[8]
  change in vivo at 5 mg/kg: -29%

## CC(NC(=O)Cc1ccc(C(=O)O)cc1)c1ccccc1N1CCCCC1 (single isomer, unassigned; (+)) [AU, (+)-4-[(1-(2-Piperidino-phenyl)-1-ethyl)-aminocarbonylmethyl]-benzoic acid]
[1]
  change in vivo at 1 mg/kg: -41%
[2]
  change in vivo at 1 mg/kg: -22%
[3]
  change in vivo at 1 mg/kg: -17%
[4]
  change in vivo at 1 mg/kg: -15%

## CCCC(NC(=O)Cc1ccc(C(=O)O)cc1)c1ccccc1N1CCCC1 (stereo not drawn) [H, 4-[(1-(2-Pyrrolidino-phenyl)-1-butyl)-aminocarbonylmethyl]-benzoic acid]
[5]
  change in vivo at 5 mg/kg: -50%
[6]
  change in vivo at 5 mg/kg: -46%
[7]
  change in vivo at 5 mg/kg: -44%
[8]
  change in vivo at 5 mg/kg: -45%

## O=C(Cc1ccc(C(=O)O)cc1)NC(c1ccncc1)c1ccccc1N1CCCCC1 (stereo not drawn) [AH, 4-[(2-Piperidino-α-(4-pyridyl)-benzyl)-aminocarbonylmethyl]-benzoic acid]
[3]
  Blood-sugar lowering activity, percent as compared with the controls: n.s.
[4]
  Blood-sugar lowering activity, percent as compared with the controls: n.s.
[8]
  Blood-sugar lowering activity, percent as compared with the controls: n.s.
[1]
  change in vivo at 1 mg/kg: -26%
[2]
  change in vivo at 1 mg/kg: -14%
[5]
  change in vivo at 5 mg/kg: -41%
[6]
  change in vivo at 5 mg/kg: -37%
[7]
  change in vivo at 5 mg/kg: -20%

## CC/C=C(\NC(=O)Cc1ccc(C(=O)OCC)cc1)c1ccccc1N1CCCCC1 [B, (Z)-4-[(1-(2-Piperidino-phenyl)-1-buten-1-yl)-aminocarbonylmethyl]-benzoic acid ethyl ester]
[1]
  change in vivo at 1 mg/kg: -39%
[2]
  change in vivo at 1 mg/kg: -19%
[3]
  change in vivo at 1 mg/kg: -26%
[4]
  change in vivo at 1 mg/kg: -30%
[5]
  change in vivo at 5 mg/kg: -44%
[6]
  change in vivo at 5 mg/kg: -39%
[7]
  change in vivo at 5 mg/kg: -26%
[8]
  change in vivo at 5 mg/kg: -35%

## O=C(O)CCc1ccc(CC(=O)NC(c2ccccc2)c2ccccc2N2CCCCC2)cc1 (stereo not drawn) [AL, 3-{4-[(α-Phenyl-2-piperidino-benzyl)-aminocarbonylmethyl]-phenyl}-propionic acid]
[1]
  change in vivo at 1 mg/kg: -40%
[2]
  change in vivo at 1 mg/kg: -31%
[3]
  change in vivo at 1 mg/kg: -23%
[4]
  change in vivo at 1 mg/kg: -12%
1 hour
  change in vivo at 10 mg/kg: -43%
2 hours
  change in vivo at 10 mg/kg: -41%
[9]
  change in vivo at 10 mg/kg: -38%
[10]
  change in vivo at 10 mg/kg: -34%

## O=C(Cc1ccc(C(=O)O)cc1)N/C(=C\Cc1ccccc1)c1ccccc1N1CCCCC1 [F, (Z)-4-[(3-Phenyl-1-(2-piperidino-phenyl)-1-propen-1-yl)-aminocarbonylmethyl]-benzoic acid]
[5]
  change in vivo at 5 mg/kg: -43%
[6]
  change in vivo at 5 mg/kg: -42%
[7]
  change in vivo at 5 mg/kg: -39%
[8]
  change in vivo at 5 mg/kg: -32%

## Cc1cccc(N2CCCCC2)c1C(NC(=O)Cc1ccc(C(=O)O)cc1)c1ccccc1 (stereo not drawn) [AN, 4-[(6-Methyl-α-phenyl-2-piperidino-benzyl)-aminocarbonylmethyl]-benzoic acid]
[3]
  Blood-sugar lowering activity, percent as compared with the controls: n.s.
[4]
  Blood-sugar lowering activity, percent as compared with the controls: n.s.
[1]
  change in vivo at 1 mg/kg: -27%
[2]
  change in vivo at 1 mg/kg: -24%
[5]
  change in vivo at 5 mg/kg: -39%
[6]
  change in vivo at 5 mg/kg: -35%
[7]
  change in vivo at 5 mg/kg: -27%
[8]
  change in vivo at 5 mg/kg: -26%

## Cc1cccc(C(C)NC(=O)Cc2ccc(C(=O)O)cc2)c1N1CCCCC1 (stereo not drawn) [Z, 4-[(1-(3-Methyl-2-piperidino-phenyl)-1-ethyl)-aminocarbonylmethyl]-benzoic acid]
[5]
  change in vivo at 5 mg/kg: -22%
[6]
  change in vivo at 5 mg/kg: -33%
[7]
  change in vivo at 5 mg/kg: -28%
[8]
  change in vivo at 5 mg/kg: -26%

## CCCC(NC(=O)Cc1ccc(CC(=O)O)cc1)c1ccccc1N1CCCCC1 (stereo not drawn) [S, 4-[(1-(2-Piperidino-phenyl)-1-butyl)-aminocarbonylmethyl]-phenyl-acetic acid]
[4]
  Blood-sugar lowering activity, percent as compared with the controls: n.s.
[1]
  change in vivo at 1 mg/kg: -29%
[2]
  change in vivo at 1 mg/kg: -20%
[3]
  change in vivo at 1 mg/kg: -10%
[5]
  change in vivo at 5 mg/kg: -49%
[6]
  change in vivo at 5 mg/kg: -42%
[7]
  change in vivo at 5 mg/kg: -30%
[8]
  change in vivo at 5 mg/kg: -17%
